The source of these data is article doi:10.1101/252379v1 (biorxiv, 2018).

Test [1] concerns the target T1, Sir2La (Lactobacillus acidophilus, UniProt Q5FMQ6).
T1 sequence (Q5FMQ6 1-239): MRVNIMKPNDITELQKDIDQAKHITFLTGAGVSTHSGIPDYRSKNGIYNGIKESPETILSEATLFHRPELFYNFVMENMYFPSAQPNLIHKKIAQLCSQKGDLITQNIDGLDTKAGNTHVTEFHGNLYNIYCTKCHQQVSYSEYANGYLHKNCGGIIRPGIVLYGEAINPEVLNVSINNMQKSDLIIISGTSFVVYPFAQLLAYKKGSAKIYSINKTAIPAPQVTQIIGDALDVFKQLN
Description: end-point fluorogenic deacylase assay. The test is classed as biochemical.

Test [2] addresses T1, Sir2La. Description: biochemical. To be noted: 6 IC50 (µM), continuous, continuous assay.
In test [3] the target is T1, Sir2La. The experiment in a line: fluorogenic deacylase assay. The test is classed as biochemical. To be noted: read-out: % residual activity at 50 μM.

Structures are written as SMILES.

Broadly, the IC50 is the concentration at which inhibition is half-maximal. Higher therefore signals a need for much substance. On to `CC(=S)NCCCC[C@H](NC(=O)OCc1ccccc1)C(=O)N[C@@H](Cc1c[nH]c2ccccc12)C(=O)NC(C)C` [compound 6, thioacetamide 6], for which the IC50 at Sir2La [1] came out at 15 ± 2 µM; at Sir2La [2] (Ac-LGKac-AMC (2b)), 5.8 ± 0.1 µM; on Sir2La [2] (Ac-LGKpro-AMC (2c)), 12 µM. On to `CNC(=S)NCCCC[C@H](NC(=O)OCc1ccccc1)C(=O)N[C@@H](Cc1c[nH]c2ccccc12)C(=O)NC(C)C` [compound 7, thiourea 7], for which, at Sir2La [3], the remaining activity at 50 µM came to 77%.

For the compound `NC(=O)c1cccnc1` [nicotinamide], the IC50 against Sir2La [1] is 350 ± 70 µM. Same read-out and setting: in the case of `Cc1ccc(C(=O)Nc2ccc(S(=O)(=O)O)c3cc(S(=O)(=O)O)cc(S(=O)(=O)O)c23)cc1NC(=O)c1cccc(NC(=O)Nc2cccc(C(=O)Nc3cc(C(=O)Nc4ccc(S(=O)(=O)O)c5cc(S(=O)(=O)O)cc(S(=O)(=O)O)c45)ccc3C)c2)c1` [suramin] it was 100 ± 30 µM.
